In patent US5696143A, “Benz [G] indazolyl derivatives for the treatment of inflammation” (priority 1994, dated 1997):

Columns and labels:
[1] = target: T1, Human COX II (Homo sapiens, UniProt P35354); assay: COX II activity in vitro (PGE2 formed, ELISA; recombinant enzyme, baculovirus/SF9 insect cell membranes); type: biochemical; conditions: arachidonic acid 10 μM; 10-20 min pre-incubation; pH 8.0; read-out: Human COX II ID50
T1 construct: A 2.0 kb fragment containing the coding region of either human or murine COX-I or human or murine COX-II; made in house; host or cells: SF9 insect cells (recombinant baculovirus, transfer vector pVL1393)
T1 sequence (P35354 18-604): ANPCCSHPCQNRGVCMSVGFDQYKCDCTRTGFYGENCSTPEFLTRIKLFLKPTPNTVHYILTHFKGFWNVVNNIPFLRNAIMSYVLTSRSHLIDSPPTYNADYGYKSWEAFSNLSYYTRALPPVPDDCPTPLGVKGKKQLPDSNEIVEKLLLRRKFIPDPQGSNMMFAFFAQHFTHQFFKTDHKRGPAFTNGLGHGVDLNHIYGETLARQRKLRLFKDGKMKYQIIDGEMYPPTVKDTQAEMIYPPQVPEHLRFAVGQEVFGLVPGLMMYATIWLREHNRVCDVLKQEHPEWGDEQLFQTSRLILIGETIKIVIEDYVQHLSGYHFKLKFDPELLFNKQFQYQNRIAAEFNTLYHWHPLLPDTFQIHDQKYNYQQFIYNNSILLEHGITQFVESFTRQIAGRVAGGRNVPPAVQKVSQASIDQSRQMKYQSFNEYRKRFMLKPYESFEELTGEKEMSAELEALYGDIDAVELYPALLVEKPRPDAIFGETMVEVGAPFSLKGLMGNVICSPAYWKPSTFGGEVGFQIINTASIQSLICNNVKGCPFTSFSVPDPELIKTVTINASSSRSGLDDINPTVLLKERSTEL
Procedure: (§1) Evaluation of COX I and COX II activity in vitro
(§2) The COX II inhibition activity of the compounds of this invention illustrated in the Examples was determined by the following methods.
(§3) a. Preparation of recombinant CQX baculoviruses
(§4) A 2.0 kb fragment containing the coding region of either human or murine COX-I or human or murine COX-II was cloned into a BamH1 site of the baculovirus transfer vector pVL1393 (Invitrogen) to generate the baculovirus transfer vectors for COX-I and COX-II in a manner similar to the method of D. R. O'Reilly et al (Baculovirus Expression Vectors: A Laboratory Manual (1992)). Recombinant baculoviruses were isolated by transfecting 4 μg of baculovirus transfer vector DNA into SF9 insect cells ([…]) along with 200 ng of linearized baculovirus plasmid DNA by the calcium phosphate method. See M. D. Summers and G. E. Smith, A Manual of Methods for Baculovirus Vectors and Insect Cell Culture Procedures, Texas Agric. Exp. Station Bull. 1555 (1987). Recombinant viruses were purified by three rounds of plaque purification and high titer (10E7-10E8 pfu/ml) stocks of virus were prepared. For large scale production, SF9 insect cells were infected in 10 liter fermentors (0.5×10^6 /ml) with the recombinant baculovirus stock such that the multiplicity of infection was 0.1. After 72 hours the cells were centrifuged and the cell pellet homogenized in Tris/Sucrose (50 mM: 25%, pH 8.0) containing 1% 3-[(3-cholamidopropyl)dimethylammonio]-1-propanesulfonate (CHAPS). The homogenate was centrifuged at 10,000×G for 30 minutes, and the resultant supernatant was stored at -80° C. before being assayed for COX activity.
(§5) b. Assay for COX I and COX II activity:
(§6) COX activity was assayed as PGE2 formed/μg protein/time using an ELISA to detect the prostaglandin released. CHAPS-solubilized insect cell membranes containing the appropriate COX enzyme were incubated in a potassium phosphate buffer (50 mM, pH 8.0) containing epinephrine, phenol, and heme with the addition of arachidonic acid (10 μM). Compounds were pre-incubated with the enzyme for 10-20 minutes prior to the addition of arachidonic acid. Any reaction between the arachidonic acid and the enzyme was stopped after ten minutes at 37° C./room temperature by transferring 40 μl of reaction mix into 160 μl ELISA buffer and 25 μM indomethacin. The PGE2 formed was measured by standard ELISA technology (Cayman Chemical).

[2] = target: T2, Human COX I (Homo sapiens, UniProt P23219); assay: COX I activity in vitro (PGE2 formed, ELISA; recombinant enzyme, baculovirus/SF9 insect cell membranes); type: biochemical; conditions: arachidonic acid 10 μM; 10-20 min pre-incubation; pH 8.0; read-out: Human COX I ID50
T2 construct: A 2.0 kb fragment containing the coding region of either human or murine COX-I or human or murine COX-II; made in house; host or cells: SF9 insect cells (recombinant baculovirus, transfer vector pVL1393)
T2 sequence (P23219 24-599): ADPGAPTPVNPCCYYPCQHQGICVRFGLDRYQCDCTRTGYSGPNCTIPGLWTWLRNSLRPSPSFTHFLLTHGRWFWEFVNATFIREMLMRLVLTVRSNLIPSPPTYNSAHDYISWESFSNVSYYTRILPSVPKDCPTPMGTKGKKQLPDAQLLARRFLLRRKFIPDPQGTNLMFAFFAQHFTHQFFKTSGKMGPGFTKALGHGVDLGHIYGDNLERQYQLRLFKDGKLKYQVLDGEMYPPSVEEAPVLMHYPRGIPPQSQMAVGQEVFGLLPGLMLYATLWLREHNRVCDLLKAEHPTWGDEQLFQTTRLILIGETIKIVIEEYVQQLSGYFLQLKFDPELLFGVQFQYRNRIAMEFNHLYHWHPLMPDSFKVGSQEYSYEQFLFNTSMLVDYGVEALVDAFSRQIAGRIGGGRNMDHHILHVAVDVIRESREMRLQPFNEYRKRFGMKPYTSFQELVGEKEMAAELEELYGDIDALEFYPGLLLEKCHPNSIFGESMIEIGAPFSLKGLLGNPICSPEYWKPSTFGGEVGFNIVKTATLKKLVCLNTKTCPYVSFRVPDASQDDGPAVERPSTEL
Procedure: as §1, §2, §3, §4, §5, §6

[3] = system: rat paw edema (carrageenan); assay: Rat Carrageenan Foot Pad Edema Test; type: in vivo, Male Sprague-Dawley rats; conditions: @ 30 mg/kg body weight, oral, 1 h before carrageenan; foot volume 3 h after injection; % decrease from control paw volume
Procedure: Rat Carrageenan Foot Pad Edema Test
The carrageenan foot edema test was performed with materials, reagents and procedures essentially as described by Winter, et al., (Proc. Soc. Exp. Biol. Med., 111, 544 (1962)). Male Sprague-Dawley rats were selected in each group so that the average body weight was as close as possible. Rats were fasted with free access to water for over sixteen hours prior to the test. The rats were dosed orally (1 mL) with compounds suspended in vehicle containing 0.5% methylcellulose and 0.025% surfactant, or with vehicle alone. One hour later a subplantar injection of 0.1 mL of 1% solution of carrageenan/sterile 0.9% saline was administered and the volume of the injected foot was measured with a displacement plethysmometer connected to a pressure transducer with a digital indicator. Three hours after the injection of the carrageenan, the volume of the foot was again measured. The average foot swelling in a group of drug-treated animals was compared with that of a group of placebo-treated animals and the percentage inhibition of edema was determined (Otterhess and Bliven, Laboratory Models for Testing NSAIDs, in Non-steroidal Anti-Inflammatory Drugs, (J. Lombardino, ed. 1985)).

IC50 [1] | IC50 [2] | Structure (SMILES) | % Inhibition (rat paw edema) [3]
> 100 µM | > 100 µM | COc1ccc2c(ccc3cnn(-c4ccc(S(N)(=O)=O)cc4)c32)c1 [Example 4, 4-[7-Methoxy-1H-benz[g]indazol-1-yl]benzenesulfonamide] | 
1 µM | > 100 µM | COc1ccc2c(ccc3c(C(F)F)nn(-c4ccc(S(N)(=O)=O)cc4)c32)c1Cl [Example 1, 4-[6-Chloro-3-(difluoromethyl)-7-methoxy-1H-benz[g]indazol-1-yl]benzenesulfonamide] | 29%
> 100 µM | > 100 µM | NS(=O)(=O)c1ccc(-n2nc(C(F)(F)F)c3ccc4ccccc4c32)cc1 [Example 5, 4-[3-(Trifluoromethyl)-1H-benz[g]indazol-1-yl]benzenesulfonamide] | 
< 0.1 µM | 0.8 µM | COc1ccc2c(ccc3c(C(F)F)nn(-c4ccc(S(N)(=O)=O)cc4)c32)c1 [Example 2, 4-[3-(difluoromethyl)-7-methoxy-1H-benz[g]indazol-1-yl]benzenesulfonamide] | 24%
< 0.1 µM | > 100 µM | COc1ccc2c(ccc3c(C(F)(F)F)nn(-c4ccc(S(N)(=O)=O)cc4)c32)c1 [Example 3, 4-[7-Methoxy-3-(trifluoromethyl)-1H-benz[g]indazol-1-yl]benzenesulfonamide] | 
